Article PMC7937589 (Drugs in R&D, 2020)

Key:
solid tumors = assay: Antitumor activity, overall response by RECIST v1.1; type: in vivo, human; settings: for Partial response rate: across all treatment cycles
[1] = test system: advanced solid malignancies; settings: US study, patients with ALK-positive tumors, especially NSCLC; cited from earlier work
[2] = Plasma and urine pharmacokinetics of ASP3026; type: in vivo, human; settings: for Tmax: human, plasma, oral
[3] = test system: Japanese patients with solid tumors; type: in vivo, human
[4] = Japanese patients, oral once daily

**Q.** With `COc1cc(N2CCC(N3CCN(C)CC3)CC2)ccc1Nc1ncnc(Nc2ccccc2S(=O)(=O)C(C)C)n1` [ASP3026] as the molecule, how does the Partial response (solid tumors; Cycle 1, 200 mg daily, escalation (n = 3) and expansion (n = 6) cohorts) read?
**A.** The Partial response was “none of the patients”.

**Q.** And the “Patients with stable disease” value (solid tumors; Cycle 1, 200 mg daily, escalation cohort (n = 3))?
**A.** The value was “three”.

**Q.** And the “Patients with stable disease” value (solid tumors; Cycle 1, 200 mg daily, expansion cohort (n = 6))?
**A.** The value was “three”.

**Q.** What about the Partial response rate (solid tumors; 75-mg dose group (1/3)) of the same molecule?
**A.** The Partial response rate was 33.3%.

**Q.** What about the Partial response rate (solid tumors; 125-mg dose group (1/4)) of the same molecule?
**A.** Its Partial response rate is 25.0%.

**Q.** And the “Patients achieving partial response (PR)” value [1]?
**A.** Its value is “Half of the patients”.

**Q.** And the “Dose dependence of median Cmax and AUC24h” value ([2]; 25 mg to 325 mg, Day 1 and Day 28, escalation cohort)?
**A.** The value was “increased in a dose-dependent manner”.

**Q.** What about the Tmax ([2]; Mean tmax across the dose groups, Day 1) of the same molecule?
**A.** Its Tmax is 2.12 to 4.52 h.

**Q.** And the Tmax ([2]; Mean tmax across the dose groups, Day 28)?
**A.** The Tmax was 2.48 to 3.75 h.

**Q.** And the Tmax ([2]; Median tmax across the dose groups, Day 1)?
**A.** Its Tmax is 1.97 to 3.97 h.

**Q.** And the Tmax ([2]; Median tmax across the dose groups, Day 28)?
**A.** Its Tmax is 2.48 to 3 h.

**Q.** And the Steady state achieved ([2]; once daily oral dosing)?
**A.** The Steady state achieved was ≤ 8 days.

**Q.** And the “Patients with dose-limiting toxicity (DLT)” value ([3]; 325 mg daily, Cycle 1, six patients evaluated)?
**A.** The value was “Three”.

**Q.** And the “Maximum tolerated dose (MTD)” value [3, 4]?
**A.** The value was 200 mg.

**Q.** What about the “Recommended phase II dose (RP2D)” value [3, 4] of the same molecule?
**A.** Its value is 200 mg.

**Q.** What about the “Total incidence of Grade 4 TEAEs” value ([3]; all cohorts (1/29)) of the same molecule?
**A.** The value was 3.4%.

**Q.** And the “Total incidence of Grade 5 TEAEs” value ([3]; all cohorts (1/29))?
**A.** The value was 3.4%.

**Q.** And the “Patients reporting eye disorders” value ([3]; all cohorts (4/29))?
**A.** The value was 13.8%.

**Q.** What about the “Total incidence of Grade 1 TEAEs” value ([3]; all cohorts (6/29)) of the same molecule?
**A.** The value was 20.7%.

**Q.** What about the “Total incidence of Grade 2 TEAEs” value ([3]; all cohorts (8/29)) of the same molecule?
**A.** Its value is 27.6%.

**Q.** What about the “Total incidence of Grade 3 TEAEs” value ([3]; all cohorts (13/29)) of the same molecule?
**A.** The value was 44.8%.

**Q.** And the “Overall incidence of drug-related AEs” value ([3]; all cohorts (24/29))?
**A.** The value was 82.8%.

**Q.** What about the “Incidence of TEAEs” value ([3]; all treatment groups (29/29)) of the same molecule?
**A.** Its value is 100%.

**Q.** What about the “Dose-limiting toxicity (DLT)” value ([3]; daily dose from 25 mg to 200 mg, Cycle 1) of the same molecule?
**A.** Its value is “No DLT was observed”.
